Measurements taken from patent US5866380A, “Methods for bioconversion of ferulic acid to vanillic acid or vanillin and for the bioconversion of vanillic acid to vanillin using filamentous fungi” (Institut National De La Recherche Agronomique-I.N.R.A., priority 1994, dated 1999).

What was measured:
fungi = test: toxicity of ferulic acid, vanillic acid and vanillin to the fungi; type: cell-based, filamentous fungi; conditions: for concentration toxic to the fungi: concentration in the culture
[1] = binding of produced vanillin to XAD2 resin in Phanerochaete chrysosporium culture (experiment 2); type: physicochemical; conditions: experiment 2, XAD2 10% (weight/volume), 6 days of growth
Protocol: The strain used is the Phanerochaete chrysosporium strain MIC 247, deposited on 31st Aug. 1994 with the Collection Nationale de Culture de Microorganismes under the number I-1471. This strain was cultured as described in Example 1 above.
Vanillic acid was added sequentially, namely: 0.3 g/l at the end of 3 days of culture, then 0.3 g/l every day.
For experiment 2, sterile resin XAD2 (Amberlite) is added in the proportion of 10% (weight/volume) after 3 days+6 h of culture of the fungus, that is to say 6 h after adding vanillic acid (at a concentration of 300 mg/l).
Vanillic acid and its metabolites are assayed as described in Example 1 above.

[2] = binding of vanillin by nonionic resin XAD2; type: physicochemical

Row | SMILES | concentration toxic to the fungi (fungi) | toxicity for the metabolism of the fungus (in words) (fungi; strain that accumulates vanillin (Nidulariales)) | vanillin produced that has been bound to the resin [1] | vanillin bound by the resin [2]
1 | COc1cc(C(=O)O)ccc1O [vanillic acid] | above 2 g/l | – | – | –
2 | COc1cc(/C=C/C(=O)O)ccc1O [ferulic acid] | above 2 g/l | – | – | –
3 | COc1cc(C=O)ccc1O [vanillin] | above 2 g/l | very quickly becomes toxic for the metabolism of the fungus | 94% | 98%
